Test system: adjuvant arthritis
Experiment: Adjuvant Arthritis Test
Assay type: in vivo, Lewis female rats
Conditions: 8th to 21st day; for Swelling inhibition rate with respect to control group, 14th day, Left / Swelling inhibition rate with respect to control group, 21st day, Left: left hind limb (adjuvant-injected); for Swelling inhibition rate with respect to control group, 14th day, Right / Swelling inhibition rate with respect to control group, 21st day, Right: right hind limb; for Bone destruction inhibition rate with respect to control group: soft X-ray score, 22nd day

Row | Structure (SMILES) | Swelling inhibition rate with respect to control group, 14th day, Left (20 mg/kg s.c. daily) | Swelling inhibition rate with respect to control group, 21st day, Left (20 mg/kg s.c. daily) | Swelling inhibition rate with respect to control group, 14th day, Right (20 mg/kg s.c. daily) | Swelling inhibition rate with respect to control group, 21st day, Right (20 mg/kg s.c. daily) | Bone destruction inhibition rate with respect to control group (20 mg/kg s.c. daily) | Swelling inhibition rate with respect to control group, 14th day, Left (3 mg/kg s.c. daily) | Swelling inhibition rate with respect to control group, 21st day, Left (3 mg/kg s.c. daily) | Swelling inhibition rate with respect to control group, 14th day, Right (3 mg/kg s.c. daily) | Swelling inhibition rate with respect to control group, 21st day, Right (3 mg/kg s.c. daily) | Bone destruction inhibition rate with respect to control group (3 mg/kg s.c. daily)
1 | CC1(C)CC(CC(O)(P(=O)(O)O)P(=O)(O)O)c2ccccc2S1 (centres unmarked) [Example 2, Monosodium 2-[4-(2,2-dimethylthiochromanyl)]-1-hydroxyethane-1,1-diphosphonate] | 59.6% | 75.3% | 8.0% | 16.5% | 80.4% |  |  |  |  | 
2 | O=P(O)(O)C(O)(CC1CCSc2ccc(Cl)cc21)P(=O)(O)O (centres unmarked) [Example 4, Monosodium 2-[4-(6-chlorothiochromanyl)]-1-hydroxyethane-1,1-diphosphonate] |  |  |  |  |  | 55.5% | 93.0% | 32.4% | 37.7% | 52.7%
3 | O=P(O)(O)C(O)(CC1CCSc2ccccc21)P(=O)(O)O (centres unmarked) [Example 6, Monosodium 2-(4-thiochromanyl)-1-hydroxyethane-1,1-diphosphonate] |  |  |  |  |  | 26.1% | 62.0% | 27.2% | 35.9% | 38.5%
4 | O=P(O)(O)C(O)(CC1CCSc2c(Cl)cccc21)P(=O)(O)O (centres unmarked) [Example 8] |  |  |  |  |  | 52.6% | 84.1% | 0.1% | 37.5% | 52.3%
5 | CCc1cccc2c1SCCC2CC(O)(P(=O)(O)O)P(=O)(O)O (centres unmarked) [Example 10, Disodium 2-[4-(8-ethylthiochromanyl)]-1-hydroxyethane-1,1-diphosphonate] |  |  |  |  |  | 38.1% | 62.5% | 19.5% | 33.9% | 23.9%
6 | COc1cccc2c1SCCC2CC(O)(P(=O)(O)O)P(=O)(O)O (centres unmarked) [Example 12] |  |  |  |  |  | 35.4% | 60.1% | 0.2% | 24.2% | 26.2%
7 | CSc1cccc2c1SCCC2CC(O)(P(=O)(O)O)P(=O)(O)O (centres unmarked) [Example 14, Disodium 2-[4-(8-methylthiothiochromanyl)]-1-hydroxyethane-1,1-diphosphonate] |  |  |  |  |  | 53.9% | 80.0% | 2.9% | 31.0% | 46.9%

From patent US5565440A, “Methane diphosphonic acid derivative, its production process and its pharmaceutical applications” (Toray Industries, Inc., priority 1992, dated 1996)
